Test results from patent publication US20210069152A1, “METHODS FOR TREATING HETEROTOPIC OSSIFICATION” (Clementia Pharmaceuticals Inc., priority 2016, published 2021).

Key:
[1] = tested on: heterotopic ossification in subjects with fibrodysplasia ossificans progressiva; experiment: Volume of new heterotopic ossification at flare-up site (x-ray / low-dose CT) in FOP patients, adult cohort dosing regimens; assay type: in vivo, human; conditions: for reduction in mean bone volume formation (new HO) relative to Placebo/Untreated group: 12 weeks
Experimental: FIGS. 3A and 3B are graphs showing a comparison of the volume of new heterotopic ossification between (i) episodic treatment of FOP patients (i.e., treatment during non-quiescent periods only and (ii) the treatment regimens of the present invention that include treatment during both quiescent and non-quiescent periods. Patients in the “Placebo/Untreated” group were treated with a sugar pill or untreated (28 patients). Patients in the “PVO Non-Quiescent Only” group were treated with either 20 mg palovarotene (PVO) daily for 28 days followed by 10 mg PVO daily for 56 days (47 patients) or 10 mg PVO daily for 14 days followed by 5 mg PVO daily for 28 days (9 patients). Patients in the “PVO Quiescent/Non-Quiescent” group were treated with 5 mg PVO daily during the quiescent period and with 20 mg PVO daily for 28 days (NQ loading dose) followed by 10 mg PVO daily for 56 days (NQ maintenance dose) following initiation of flare-up symptoms, i.e., initiation of a non-quiescent period (10 patients).
Adult cohort includes individuals who have achieved at least 90% skeletal maturity irrespective of age. Individuals in the adult cohort received palovarotene (neutral form) at 5 mg once daily as a non-flare-up based treatment (e.g., during periods when symptoms of a flare-up were not present). […]
Assessment of new HO at the flare-up site was evaluated using x-ray, and low-dose CT imaging was employed as a secondary imaging assessment. […] In order to ensure consistency and standardization, images were evaluated for the presence or absence of HO using two independent procedures, both of which were blinded to treatment group assignment. In the Primary Read process, two musculoskeletal radiologists independently compared baseline and post-baseline images within a single imaging modality.
The volume of new heterotopic ossification (HO), HO that occurred during the non-quiescent period, was assessed 12 weeks following initiation of treatment for the “Non-Quiescent Only” treatment group and 12 weeks after initiation of the 20 mg/day NQ loading dose in the “Quiescent/Non-Quiescent” treatment group.

[2] = tested on: heterotopic ossification in subjects with fibrodysplasia ossificans progressiva; experiment: Flare-up outcomes, open-label study (new HO by low-dose CT scan); assay type: in vivo, human; conditions: open-label extension study, 27 flare-ups treated with open-label palovarotene
Experimental: (§1) Sixty-seven flare-ups have been treated: 40 with double-blind medication (10 subjects received placebo, 9 subjects received palovarotene at 5 mg once daily for 2 weeks followed by 2.5 mg once daily for 4 weeks, and 21 subjects received palovarotene at 10 mg once daily for 2 weeks followed by 5 mg once daily for 4 weeks); and 27 received open-label palovarotene. Sixty-one of these 67 flare-ups have available results from post-baseline imaging (by low-dose CT scan). The results are summarized for the respective studies in FIGS. 1 and 2.

[3] = tested on: subjects with fibrodysplasia ossificans progressiva; experiment: Safety outcomes, double-blind study; assay type: in vivo, human
Experimental: as §1
The most frequently reported adverse events overall were dry skin (58.8%) and dry lips (32.4%).

[4] = tested on: subjects with fibrodysplasia ossificans progressiva; experiment: Safety outcomes, open-label study; assay type: in vivo, human
Experimental: as §1
The findings were similar in the open-label study (described in Example 1) in which the overall incidence of adverse events was 92.3% (12 of 13 subjects). Retinoid-associated adverse events were reported by all subjects; most were mild (69.2%) in severity. The most frequently reported adverse events overall were dry skin (69.2%) and pruritus (61.5%).

growth plate = experiment: Growth plate assessment by knee and hand/wrist radiographs in children; assay type: in vivo, human; conditions: acute 6-week treatment
Prrx1-R206H mice = experiment: Growth plate assessment in Prrx1-R206H mice; assay type: in vivo
Experimental: (§2) The effects of palovarotene on the growth plates were assessed.

wild-type mice = experiment: Growth plate assessment in wild-type mice; assay type: in vivo
Experimental: as §2

CC1(C)CCC(C)(C)c2cc(Cn3cccn3)c(/C=C/c3ccc(C(=O)O)cc3)cc21 [palovarotene, 4-[(1E)-2-[5,6,7,8-Tetrahydro-5,5,8,8-tetramethyl-3-(1H-pyrazol-1-ylmethyl)-2-naphthalenyl]-ethenyl]-benzoic acid]
reduction in mean bone volume formation (new HO) relative to Placebo/Untreated group ([1]; Non-Quiescent Only group (both doses pooled)): 75% | volume of new heterotopic ossification ([1]; PVO Quiescent/Non-Quiescent: 5 mg daily quiescent, 20 mg daily 28 days then 10 mg daily 56 days after flare-up (10 patients), 12 weeks after start of NQ loading dose): 212 mm^3 | reduction in mean bone volume formation (new HO) relative to Placebo/Untreated group ([1]; Quiescent/Non-Quiescent group): 97% | number of flare-ups with new HO [2]: four | dose reductions or discontinuations of treatment [3]: no dose reductions or discontinuations of treatment | incidence and severity of retinoid-associated adverse events, trend [3]: dose-related increases in the incidence and severity | severity of most retinoid-associated adverse events [3]: mild or moderate | trend of adverse event incidence across the treatment groups [3]: dose-related increases across the treatment groups | overall incidence of adverse events ([3]; 33 of 34 subjects with safety data, all treatment groups (placebo, 5/2.5 mg, 10/5 mg)): 97.1% | incidence of dry lips ([3]; overall): 32.4% | incidence of dry skin ([3]; overall): 58.8% | dose reductions or discontinuations of treatment [4]: no dose reductions or discontinuations of treatment | retinoid-associated adverse events mild in severity [4]: 69.2% | subjects reporting retinoid-associated adverse events [4]: all subjects | overall incidence of adverse events ([4]; 12 of 13 subjects): 92.3% | incidence of dry skin ([4]; overall): 69.2% | incidence of pruritus ([4]; overall): 61.5% | adverse effects on the growth plate (growth plate): no adverse effects on the growth plate | effect on long bone growth, growth plate organization and matrix deposition (Prrx1-R206H mice): preserved long bone growth and near-normalized growth plate organization and matrix deposition | effect on histologic growth plate abnormalities and long bone length (Prrx1-R206H mice; daily dosing): reversed histologic growth plate abnormalities and shortened long bones | effect on growth plate (wild-type mice): Adverse effects
